Assay results taken from ChEMBL document CHEMBL1138491, “An innovative method to study target protein-drug interactions by mass spectrometry” (J Med Chem, 2009).

Target: T1, Peroxisome proliferator-activated receptor alpha (Homo sapiens, UniProt Q07869)
T1 sequence (Q07869 whole entry): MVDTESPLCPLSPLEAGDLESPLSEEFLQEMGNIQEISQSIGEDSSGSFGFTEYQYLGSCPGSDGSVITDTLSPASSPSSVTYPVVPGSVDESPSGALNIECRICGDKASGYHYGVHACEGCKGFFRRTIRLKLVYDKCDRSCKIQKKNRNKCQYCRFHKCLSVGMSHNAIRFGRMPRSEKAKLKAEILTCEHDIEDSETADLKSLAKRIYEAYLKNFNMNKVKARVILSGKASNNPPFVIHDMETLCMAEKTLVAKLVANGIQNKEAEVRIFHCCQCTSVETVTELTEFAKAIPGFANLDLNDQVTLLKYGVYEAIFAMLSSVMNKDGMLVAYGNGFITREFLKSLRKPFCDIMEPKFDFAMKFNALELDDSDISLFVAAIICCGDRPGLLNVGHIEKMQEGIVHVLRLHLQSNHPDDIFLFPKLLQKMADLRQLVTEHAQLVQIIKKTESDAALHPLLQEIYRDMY
Experiment: Inhibition of PPARalpha receptor

## CCC(=O)NC[C@H](Cc1ccc(OCCc2nc(-c3ccccc3)oc2C)cc1)N/C(C)=C\C(=O)c1ccc(C(F)(F)F)cc1
  IC50: 240 nM
